Results published in patent publication US20090253644A1, “Radiosensitizer” (TOYO SUISAN KAISHA, LTD., priority 2004, published 2009).

Experiments:
[1] = system: angiogenesis (tube formation); experiment: Assay by angiogenesis kit (KZ-1000), tube formation; type: cell-based
Method: The anti-angiogenic effect obtained by combined use of 20 μM of α-SQMG C18:0 administration and 4 Gy of ^60Co γ-ray irradiation was investigated using an angiogenesis kit (“angiogenesis kit KZ-1000” of Kurabo Industries Ltd.).
A drug named Suramin is the known substance as a drug suppressing angiogenesis, and it is known that its action is to inhibit a growth factor receptor of a vascular endothelial cell. In the present Example, Suramin was used as a positive control at 50 μM.
As described above, the “theoretical additive point of combined use” is calculated by multiplication, and the theoretical value is compared with an actually measured value.

[2] = system: Bovine aortic endothelial cells (BAEC); experiment: Colony assay on vascular endothelial cells with 60Co γ-ray irradiation; type: cell-based; set-up: key to actually measured SF value of combined use group / actually measured SF value of combined use: SF = colonies/seeded cells×(PE/100); PE = control colony formation rate; conditions: for SF (cell surviving fraction), administration alone / synergistic effect of combined use with radiation on suppression of proliferation of vascular endothelial cells: 10 μM; for SF (cell surviving fraction), administration alone: 24 hours, no irradiation; for synergistic effect of combined use with radiation on suppression of proliferation of vascular endothelial cells: 4 Gy and/or 6 Gy
Method: Bovine aortic endothelial cells (BAEC) were appropriately seeded on a petri dish, and adhesion of cells was confirmed after 2 to 3 hours. In a group of α-SQMG C18:0 administration alone and a combined use group, the cells were treated with 10 μM of α-SQMG C18:0. After 24 hours, a medium was exchanged in all test groups, and 4 Gy of ^60Co γ-ray was irradiated in a group of irradiation alone and a combined use group. After the cells were cultured in a CO2 incubator at 37° C. for 10 to 12 days, formed colonies were fixed with formalin, and stained with a crystal violet staining solution. On each plate, the number of colonies consisting of about 50 or more cells was counted, and cell surviving fraction (SF) was obtained according to the following equation.
SF (cell surviving fraction)=number of colonies/number of seeded cells×(PE/100)
Herein, PE (plating efficiency) represents a colony formation rate (%) on a plate of a control.
An experiment was performed three times, and an average of them was calculated.
The same experiment as that of Experimental Example 2-1 was performed except that a radiation dose 6 Gy was irradiated in place of 4 Gy used in Experimental Example 2-1. […]

[3] = 4 Gy 60Co γ-ray + α-SQMG C18:0 20 μM or Suramin 50 μM

| SMILES | tube formation rate, Actually measured value, combined use [1, 3] | tube formation rate, Theoretical value (theoretical additive point of combined use) [1, 3] | tube formation rate, use alone ([1]; α-SQMG C18:0 20 μM, Suramin 50 μM, no irradiation) | actually measured SF value of combined use group ([2]; 10 μM + 6 Gy 60Co γ-ray) | theoretical additive point of combined use (SF) ([2]; 10 μM + 6 Gy 60Co γ-ray) | SF (cell surviving fraction), administration alone [2] | synergistic effect of combined use with radiation on suppression of proliferation of vascular endothelial cells [2] | actually measured SF value of combined use group ([2]; 10 μM + 4 Gy 60Co γ-ray) | theoretical additive point of combined use (SF) ([2]; 10 μM + 4 Gy 60Co γ-ray) |
| --- | --- | --- | --- | --- | --- | --- | --- | --- | --- |
| Cc1ccc(C(=O)Nc2ccc(S(=O)(=O)O)c3cc(S(=O)(=O)O)cc(S(=O)(=O)O)c23)cc1NC(=O)c1cccc(NC(=O)Nc2cccc(C(=O)Nc3cc(C(=O)Nc4ccc(S(=O)(=O)O)c5cc(S(=O)(=O)O)cc(S(=O)(=O)O)c45)ccc3C)c2)c1 [Suramin, reference compound] | 0.232 | 0.219 | 0.3386 | – | – | – | – | – | – |
| CCCCCCCCCCCCCC(=O)OCC(O)CO[C@H]1O[C@H](CS(=O)(=O)[O-])[C@@H](O)[C@H](O)[C@H]1O.[Na+] (stereo partly drawn) [α-SQMG C14:0, 3-O-(6-deoxy-6-sulfo-α-D-glucopyranosyl)-1-O-myristoyl-glycerol sodium salt] | – | – | – | 0.0109 | 0.0715 | 1.0605 | considerably great synergistic effect | – | – |
| CCCCCCCCCCCCCCCCCC(=O)OCC(CO[C@@H]1O[C@H](CS(=O)(=O)[O-])[C@@H](O)[C@H](O)[C@H]1O)OC(=O)CCCCCCCCCCCCCCCCC.[Na+] (stereo partly drawn) [β-SQDG C18:0, 3-O-(6-deoxy-6-sulfo-β-D-glucopyranosyl)-1,2-di-O-stearoyl-glycerol sodium salt] | – | – | – | – | – | 0.7190 | – | 0.0908 | 0.1377 |
| CCCCCCCC/C=C\CCCCCCCC(=O)OCC(O)CO[C@H]1O[C@H](CS(=O)(=O)[O-])[C@@H](O)[C@H](O)[C@H]1O.[Na+] (stereo partly drawn) [α-SQMG C18:1, 3-O-(6-deoxy-6-sulfo-α-D-glucopyranosyl)-1-O-oleoyl-glycerol sodium salt] | – | – | – | – | – | 1.0392 | – | 0.0843 | 0.1990 |
| CCCCCCCCCCCCCCCCCC(=O)OCC(O)CO[C@@H]1O[C@H](CS(=O)(=O)[O-])[C@@H](O)[C@H](O)[C@H]1O.[Na+] (stereo partly drawn) [β-SQMG C18:0, 3-O-(6-deoxy-6-sulfo-β-D-glucopyranosyl)-1-O-stearoyl-glycerol sodium salt] | – | – | – | – | – | 0.8562 | – | 0.0922 | 0.1640 |
| CCCCCCCCCCCCCCCC(=O)OCC(O)CO[C@H]1O[C@H](CS(=O)(=O)[O-])[C@@H](O)[C@H](O)[C@H]1O.[Na+] (stereo partly drawn) [α-SQMG C16:0, 3-O-(6-deoxy-6-sulfo-α-D-glucopyranosyl)-1-O-palmitoyl-glycerol sodium salt] | – | – | – | 0.0233 | 0.0644 | 0.9553 | considerably great synergistic effect | – | – |
| CCCCCCCCCCCCCCCCCC(=O)OCC(O)CO[C@H]1O[C@H](CS(=O)(=O)[O-])[C@@H](O)[C@H](O)[C@@H]1O.[Na+] (stereo partly drawn) [α-SRMG C18:0, 3-O-(6-deoxy-6-sulfo-α-D-mannopyranosyl)-1-O-stearoyl-glycerol sodium salt] | – | – | – | – | – | 0.8758 | – | 0.0784 | 0.1677 |
| CCCCCCCCCCCCCCCCCC(=O)OCC(CO[C@H]1O[C@H](CS(=O)(=O)[O-])[C@@H](O)[C@H](O)[C@H]1O)OC(=O)CCCCCCCCCCCCCCCCC.[Na+] (stereo partly drawn) [α-SQDG C18:0, 3-O-(6-deoxy-6-sulfo-α-D-glucopyranosyl)-1,2-di-O-stearoyl-glycerol sodium salt] | – | – | – | – | – | 0.9216 | – | 0.0882 | 0.1765 |
